Experimental data taken from PubChem BioAssay (NCI).
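At the GI50, growth is halved. At the TGI there is no net growth.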

Tests used:
Test in all cases: NCI tumour cell line growth inhibition, 384-well format
[1] = system: 786-0 renal
[2] = system: A498 renal
[3] = system: A549 NSCLC
[4] = system: ACHN renal
[5] = system: BT-549 breast
[6] = system: CAKI-1 renal
[7] = system: CCRF-CEM leukemia
[8] = system: DU-145 prostate
[9] = system: EKVX NSCLC
[10] = system: HCC-2998 colon
[11] = system: HCT-116 colon
[12] = system: HCT-15 colon
[13] = system: HL-60(TB) leukemia
[14] = system: HOP-92 NSCLC
[15] = system: HS 578T breast
[16] = system: HT29 colon
[17] = system: IGROV1 ovarian
[18] = system: KM12 colon
[19] = system: LOX IMVI melanoma
[20] = system: M14 melanoma
[21] = system: MCF7 breast
[22] = system: MDA-MB-468 breast
[23] = system: MOLT-4 leukemia
[24] = system: NCI-H226 lung
[25] = system: NCI-H522 lung
[26] = system: OVCAR-3 ovarian
[27] = system: OVCAR-4 ovarian
[28] = system: OVCAR-8 ovarian
[29] = system: PC-3 prostate
[30] = system: RPMI-8226 leukemia
[31] = system: RXF 393 renal
[32] = system: SF-268 CNS
[33] = system: SF-295 CNS
[34] = system: SF-539 CNS
[35] = system: SK-MEL-2 melanoma
[36] = system: SK-MEL-28 melanoma
[37] = system: SK-MEL-5 melanoma
[38] = system: SK-OV-3 ovarian
[39] = system: SN12C renal
[40] = system: SNB-19 CNS
[41] = system: SR leukemia
[42] = system: SW-620 colon
[43] = system: T-47D breast
[44] = system: TK-10 renal
[45] = system: U251 glioblastoma
[46] = system: UACC-257 melanoma
[47] = system: UO-31 renal

With `CC(C)[C@](O)(c1ccc2cc(OC(F)F)c(OC(F)F)cc2c1)c1cn[nH]n1` the GI50 [1] was 16.2 µM, the TGI [1] was 30.3 µM and the GI50 [2] was 17.5 µM. It also gave a TGI [2] of 31.8 µM, a GI50 [3] of 17.4 µM and a TGI [3] of 44.8 µM. For the same compound, the GI50 [4] was 25.5 µM, the TGI [4] was 59.8 µM and the GI50 [5] was 14.6 µM. It also gave a TGI [5] of 27.9 µM, a GI50 [6] of 15.7 µM and a TGI [6] of 32.3 µM. For the same compound, the GI50 [7] was 12.3 µM, the TGI [7] was 24.8 µM and the GI50 [8] was 16.5 µM. The TGI [8] was 32.8 µM, the GI50 [9] was 13.1 µM and the TGI [9] was 28.8 µM. For the same compound, the GI50 [10] was 15.4 µM, the TGI [10] was 28.9 µM and the GI50 [11] was 13.6 µM. The TGI [11] was 26.9 µM, the GI50 [12] was 14.4 µM and the TGI [12] was 27.8 µM. For the same compound, the GI50 [13] was 6.11 µM, the TGI [13] was 16.1 µM and the GI50 [14] was 16.7 µM. The TGI [14] was 30.4 µM, the GI50 [15] was 12.3 µM and the TGI [15] was 24.8 µM. The GI50 [16] was 16 µM, the TGI [16] was 29.8 µM and the GI50 [17] was 17.6 µM. For the same compound, the TGI [17] was 37 µM, the GI50 [18] was 15 µM and the TGI [18] was 28.6 µM. The GI50 [19] was 17.3 µM, the TGI [19] was 31.2 µM and the GI50 [20] was 17.6 µM. It also gave a TGI [20] of 31.6 µM, a GI50 [21] of 13 µM and a TGI [21] of 27.5 µM. For the same compound, the GI50 [22] was 10.3 µM, the TGI [22] was 27.7 µM and the GI50 [23] was 11.3 µM. For the same compound, the TGI [23] was 23.5 µM, the GI50 [24] was 21 µM and the TGI [24] was 36 µM. For the same compound, the GI50 [25] was 13.6 µM, the TGI [25] was 27.7 µM and the GI50 [26] was 13 µM. It also gave a TGI [26] of 25.8 µM, a GI50 [27] of 13.6 µM and a TGI [27] of 33.1 µM. It also gave a GI50 [28] of 16.3 µM, a TGI [28] of 30 µM and a GI50 [29] of 15.9 µM. It also gave a TGI [29] of 30.3 µM, a GI50 [30] of 9.27 µM and a TGI [30] of 22.5 µM. It also gave a GI50 [31] of 13.8 µM, a TGI [31] of 28.3 µM and a GI50 [32] of 16.5 µM. The TGI [32] was 30.6 µM, the GI50 [33] was 15 µM and the TGI [33] was 28.7 µM. It also gave a GI50 [34] of 16.8 µM, a TGI [34] of 30.5 µM and a GI50 [35] of 19.4 µM. The TGI [35] was 33.5 µM, the GI50 [36] was 17.2 µM and the TGI [36] was 31.5 µM. It also gave a GI50 [37] of 13.1 µM, a TGI [37] of 25.9 µM and a GI50 [38] of 15.4 µM. It also gave a TGI [38] of 29.5 µM, a GI50 [39] of 14.9 µM and a TGI [39] of 28.2 µM. For the same compound, the GI50 [40] was 17.8 µM, the TGI [40] was 32.2 µM and the GI50 [41] was 3.91 µM. It also gave a TGI [41] of 13.6 µM, a GI50 [42] of 15.2 µM and a TGI [42] of 28.8 µM. For the same compound, the GI50 [43] was 10.9 µM, the TGI [43] was 38.2 µM and the GI50 [44] was 14.7 µM. The TGI [44] was 30.2 µM, the GI50 [45] was 16.7 µM and the TGI [45] was 30.5 µM. For the same compound, the GI50 [46] was 16.5 µM, the TGI [46] was 30.6 µM and the GI50 [47] was 16.6 µM. It also gave a TGI [47] of 30.4 µM.
